Reference: patent US5798247A, “Organic-chemical compound with ice-inhibitory action” (BASF Aktiengesellschaft, priority 1997, dated 1998)

Biological target: T1, interleukin converting enzyme (ICE) (Homo sapiens, UniProt P29466)
T1 sequence (P29466 120-297 limits assumed): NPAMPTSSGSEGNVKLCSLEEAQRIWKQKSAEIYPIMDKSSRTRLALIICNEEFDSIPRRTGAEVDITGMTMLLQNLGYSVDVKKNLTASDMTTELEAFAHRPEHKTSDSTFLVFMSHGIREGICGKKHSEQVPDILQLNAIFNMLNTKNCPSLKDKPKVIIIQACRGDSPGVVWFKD
T1 sequence (P29466 317-404 limits assumed): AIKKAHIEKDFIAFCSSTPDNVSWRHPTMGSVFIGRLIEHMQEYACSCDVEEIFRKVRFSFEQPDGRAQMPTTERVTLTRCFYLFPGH
Assay: ICE inhibition (inhibition constant)
Format: biochemical
Conditions: reversible covalent binding (thiohemiacetal linkage) to ICE

## O=C(c1ccccc1)c1ccccn1 [2-Benzoylpyridine]
  Ki: ~1 µM
